Measured values taken from ChEMBL document CHEMBL1157924, “Exploration of secondary and tertiary pharmacophores in unsymmetrical N,N'-diaryl urea inhibitors of soluble epoxide hydrolase” (Bioorg Med Chem Lett, 2010).

Target: T1, Bifunctional epoxide hydrolase 2 (Homo sapiens, UniProt P34913)
T1 sequence (P34913 whole entry): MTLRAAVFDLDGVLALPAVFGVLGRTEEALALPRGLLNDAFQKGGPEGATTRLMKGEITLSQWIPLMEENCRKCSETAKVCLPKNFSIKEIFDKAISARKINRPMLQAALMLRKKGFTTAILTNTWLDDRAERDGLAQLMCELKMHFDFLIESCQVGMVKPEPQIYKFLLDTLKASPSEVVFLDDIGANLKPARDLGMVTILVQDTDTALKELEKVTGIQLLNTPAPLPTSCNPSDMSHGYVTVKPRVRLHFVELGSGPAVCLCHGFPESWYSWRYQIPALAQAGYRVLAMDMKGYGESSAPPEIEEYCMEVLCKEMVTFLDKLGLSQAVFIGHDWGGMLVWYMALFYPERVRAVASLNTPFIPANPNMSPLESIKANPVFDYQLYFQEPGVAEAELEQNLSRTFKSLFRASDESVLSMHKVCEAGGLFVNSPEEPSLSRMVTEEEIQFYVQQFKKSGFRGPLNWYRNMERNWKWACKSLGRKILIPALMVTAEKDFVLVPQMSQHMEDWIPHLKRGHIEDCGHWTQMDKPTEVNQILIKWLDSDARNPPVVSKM
Test: Inhibition of soluble epoxide hydrolase by fluorescence assay

| SMILES | IC50 [nM] |
| --- | --- |
| O=C(Nc1ccc(C(F)(F)F)cc1)Nc1cccc(S(=O)(=O)NCCN2CCOCC2)c1 | 1 |
| O=C(Nc1ccc(C(=O)NCCN2CCOCC2)cc1)Nc1ccc(C(F)(F)F)cc1 | 1 |
| O=C(Nc1ccc(Cl)cc1)Nc1cccc(C(=O)NCCN2CCOCC2)c1 | 130 |
| O=C(Nc1ccc(C(F)(F)F)cc1)Nc1cccc(C(=O)NCCN2CCOCC2)c1 | 22 |
| CN1CCN(C(=O)c2ccc(NC(=O)Nc3ccc(C(F)(F)F)cc3)cc2F)CC1 | 4 |
| O=C(O)COCCNC(=O)c1cccc(NC(=O)NC23CC4CC(CC(C4)C2)C3)c1 | 130 |
| O=C(Nc1ccc(C(F)(F)F)cc1)Nc1cccc(C(=O)c2ccc(C(=O)O)cc2)c1 | 27 |
| O=C(Nc1ccc(C(F)(F)F)cc1)Nc1ccc(F)c(C(=O)NCCN2CCOCC2)c1 | 18 |
| CN(CC(=O)O)C(=O)c1cccc(NC(=O)NC23CC4CC(CC(C4)C2)C3)c1 | 230 |
| CN(CC(=O)O)C(=O)c1ccc(NC(=O)NC23CC4CC(CC(C4)C2)C3)cc1 | 200 |
| O=C(Nc1ccc(C(=O)c2ccc(C(=O)O)cc2)cc1)Nc1ccc(C(F)(F)F)cc1 | 20 |
| O=C(Nc1ccc(Cl)cc1)Nc1ccc(C(=O)N2CCC(N3CCOCC3)CC2)cc1 | 235 |
| CN1CCN(C(=O)c2cccc(NC(=O)NC34CC5CC(CC(C5)C3)C4)c2)CC1 | 36 |
| O=C(Nc1ccccc1)Nc1cccc(C(=O)NCCN2CCOCC2)c1 | 2800 |
| O=C(Nc1ccc(C(F)(F)F)cc1)Nc1cccc(C(=O)NCCN2CCCC2)c1 | 68 |
| O=C(Nc1ccc(C(=O)N2CCOCC2)cc1)Nc1ccc(C(F)(F)F)cc1 | 5 |
| CC(C)N1CCN(S(=O)(=O)c2ccc(NC(=O)Nc3ccc(C(F)(F)F)cc3)cc2)CC1 | 5 |
| O=C(Nc1ccc(F)cc1)Nc1ccc(C(=O)NCCN2CCOCC2)cc1 | 140 |

| SMILES | IC50 [nM] |
| --- | --- |
| O=C(Nc1ccc(C(F)(F)F)cc1)Nc1cccc(S(=O)(=O)N2CCOCC2)c1 | 1 |
| CC(C)N1CCN(C(=O)c2cccc(NC(=O)Nc3ccc(C(F)(F)F)cc3)c2)CC1 | 15 |
| O=C(Nc1ccc(C(F)(F)F)cc1)Nc1ccc(C(=O)NCCN2CCCC2)c(F)c1 | 19 |
| O=C(Nc1ccc(Cl)cc1)Nc1ccc(F)c(C(=O)NCCN2CCCC2)c1 | 760 |
| O=C(O)CNC(=O)c1ccc(NC(=O)NC23CC4CC(CC(C4)C2)C3)cc1 | 490 |
| O=C(Nc1ccc(OC(F)(F)F)cc1)Nc1ccc(C(=O)N2CCOCC2)cc1 | 4 |
| O=C(Nc1ccc(C(F)(F)F)cc1)Nc1ccc(C(=O)N2CCOCC2)c(F)c1 | 2 |
| CC(C)N1CCN(C(=O)c2ccc(NC(=O)Nc3ccc(OC(F)(F)F)cc3)cc2)CC1 | 4 |
| CN1CCN(C(=O)c2cccc(NC(=O)Nc3ccc(C(F)(F)F)cc3)c2)CC1 | 12 |
| O=C(Nc1ccc(C(F)(F)F)cc1)Nc1ccc(F)c(C(=O)N2CCOCC2)c1 | 8 |
| O=C(Nc1ccc(Cl)cc1)Nc1ccc(C(=O)N2CCOCC2)c(F)c1 | 11 |
| CN1CCN(C(=O)c2ccc(NC(=O)Nc3ccc(F)cc3)cc2)CC1 | 160 |
| O=C(Nc1ccc(C(=O)NCCN2CCOCC2)cc1)NC12CC3CC(CC(C3)C1)C2 | 3 |
| O=C(Nc1ccccc1)Nc1ccc(S(=O)(=O)CCCN2CCOCC2)cc1 | 54 |
| COCCNC(=O)c1ccc(NC(=O)NC23CC4CC(CC(C4)C2)C3)cc1 | 54 |
| O=C(O)COCCNC(=O)c1ccc(NC(=O)NC23CC4CC(CC(C4)C2)C3)cc1 | 80 |
| O=C(Nc1ccc(OC(F)(F)F)cc1)Nc1ccc(C(=O)NCCN2CCOCC2)cc1 | 2 |

Further molecules by falling IC50, results first:

| IC50 [nM] | SMILES |
| --- | --- |
| 800 | O=C(O)CNC(=O)c1cccc(NC(=O)NC23CC4CC(CC(C4)C2)C3)c1 |
| 320 | O=C(Nc1ccccc1)Nc1ccc(C(=O)NCCN2CCOCC2)cc1 |
| 280 | O=C(Nc1ccc(C2CCCCC2)cc1)Nc1cccc(C(=O)NCCN2CCOCC2)c1 |
| 251 | O=C(Nc1ccccc1)Nc1ccc(C(=O)N2CCOCC2)cc1 |
| 170 | O=C(Nc1ccc(F)cc1)Nc1ccc(C(=O)N2CCOCC2)cc1 |
| 120 | O=C(O)CCCNC(=O)c1cccc(NC(=O)Nc2ccc(C(F)(F)F)cc2)c1 |
| 110 | COCCNC(=O)c1cccc(NC(=O)NC23CC4CC(CC(C4)C2)C3)c1 |
| 100 | O=C(Nc1ccccc1)Nc1cccc(S(=O)(=O)CCCN2CCOCC2)c1 |
| 62 | O=C(Nc1cccc(C(=O)NCCN2CCOCC2)c1)NC12CC3CC(CC(C3)C1)C2 |
| 49 | O=C(Nc1ccc(Cl)cc1)Nc1cccc(C(=O)N2CCOCC2)c1 |
| 48 | O=C(Nc1ccc(C(=O)NCCN2CCCC2)cc1)Nc1ccc(C(F)(F)F)cc1 |
| 47 | O=C(Nc1ccc(Cl)cc1)Nc1cccc(C(=O)N2CCC(N3CCOCC3)CC2)c1 |
| 38 | O=C(Nc1ccc(Cl)cc1)Nc1ccc(F)c(C(=O)NCCN2CCOCC2)c1 |
| 19 | O=C(O)CCCNC(=O)c1ccc(NC(=O)Nc2ccc(C(F)(F)F)cc2)cc1 |
| 19 | O=C(Nc1ccc(C(=O)NCCN2CCOCC2)cc1)Nc1ccc(C2CCCCC2)cc1 |
| 18 | O=C(Nc1ccc(C(F)(F)F)cc1)Nc1cccc(C(=O)Nc2cccnc2)c1 |

| IC50 [nM] | SMILES |
| --- | --- |
| 18 | O=C(Nc1ccc(Cl)cc1)Nc1ccc(C(=O)N2CCOCC2)cc1 |
| 16 | CN1CCN(C(=O)c2cc(NC(=O)Nc3ccc(C(F)(F)F)cc3)ccc2F)CC1 |
| 16 | O=C(Nc1ccc(Cl)cc1)Nc1ccc(C(=O)NCCN2CCOCC2)cc1 |
| 14 | CN1CCN(C(=O)c2ccc(NC(=O)Nc3ccc(C(F)(F)F)cc3)cc2)CC1 |
| 12 | O=C(Nc1ccc(C(=O)N2CCNCC2)cc1)NC12CC3CC(CC(C3)C1)C2 |
| 8 | O=C(Nc1ccc(C(=O)Nc2cccnc2)cc1)Nc1ccc(C(F)(F)F)cc1 |
| 7 | CN1CCN(C(=O)c2ccc(NC(=O)Nc3ccc(OC(F)(F)F)cc3)cc2)CC1 |
| 3 | O=C(Nc1ccc(C(F)(F)F)cc1)Nc1ccc(S(=O)(=O)NCCN2CCOCC2)cc1 |
| 3 | CC(C)N1CCN(S(=O)(=O)c2cccc(NC(=O)Nc3ccc(C(F)(F)F)cc3)c2)CC1 |
| 3 | O=C(Nc1ccc(C(=O)NCC(=O)N2CCOCC2)cc1)Nc1ccc(C(F)(F)F)cc1 |
| 2 | CC(C)N1CCN(C(=O)c2ccc(NC(=O)Nc3ccc(C(F)(F)F)cc3)cc2)CC1 |
| 2 | O=C(Nc1ccc(C(F)(F)F)cc1)Nc1ccc(C(=O)NCCN2CCOCC2)c(F)c1 |
| 1 | O=C(Nc1ccc(C(F)(F)F)cc1)Nc1ccc(S(=O)(=O)N2CCOCC2)cc1 |
| 1 | O=C(Nc1ccc(C(F)(F)F)cc1)Nc1cccc(S(=O)(=O)CCCN2CCOCC2)c1 |
| 1 | O=C(Nc1ccc(C(F)(F)F)cc1)Nc1ccc(S(=O)(=O)CCCN2CCOCC2)cc1 |
